In the NIST ThermoML archive (doi:10.1016/j.jct.2014.06.012):
Numbers after ± are expanded uncertainties.

Test: molar heat capacity at constant pressure
Details: 101.33 kPa, Vacuum adiabatic calorimetry

For O=P([O-])([O-])[O-].[Cs+].[Mn+2] [cesium manganese(II) phosphate], the “molar heat capacity at constant pressure” value (87.44 K, Crystal 2) was 66.08 ± 0.42 J/K/mol, the “molar heat capacity at constant pressure” value (89.1 K, Crystal 2) was 66.98 ± 0.42 J/K/mol and the “molar heat capacity at constant pressure” value (90 K, Crystal 2) was 67.48 ± 0.45 J/K/mol. The “molar heat capacity at constant pressure” value (92.52 K, Crystal 2) was 68.77 ± 0.46 J/K/mol, the “molar heat capacity at constant pressure” value (95.06 K, Crystal 2) was 70.08 ± 0.47 J/K/mol and the “molar heat capacity at constant pressure” value (97.6 K, Crystal 2) was 71.4 ± 0.47 J/K/mol. For the same compound, the “molar heat capacity at constant pressure” value (99.96 K, Crystal 2) was 72.65 ± 0.47 J/K/mol, the “molar heat capacity at constant pressure” value (100 K, Crystal 2) was 72.69 ± 0.47 J/K/mol and the “molar heat capacity at constant pressure” value (102.68 K, Crystal 2) was 74.12 ± 0.48 J/K/mol. For the same compound, the “molar heat capacity at constant pressure” value (105.79 K, Crystal 2) was 75.84 ± 0.5 J/K/mol, the “molar heat capacity at constant pressure” value (108.49 K, Crystal 2) was 77.53 ± 0.51 J/K/mol and the “molar heat capacity at constant pressure” value (110 K, Crystal 2) was 78.18 ± 0.51 J/K/mol. The “molar heat capacity at constant pressure” value (110.3 K, Crystal 2) was 78.39 ± 0.51 J/K/mol, the “molar heat capacity at constant pressure” value (111.89 K, Crystal 2) was 79.04 ± 0.52 J/K/mol and the “molar heat capacity at constant pressure” value (112.89 K, Crystal 2) was 79.62 ± 0.52 J/K/mol. For the same compound, the “molar heat capacity at constant pressure” value (113.69 K, Crystal 2) was 80.09 ± 0.52 J/K/mol, the “molar heat capacity at constant pressure” value (115.29 K, Crystal 2) was 81.13 ± 0.52 J/K/mol and the “molar heat capacity at constant pressure” value (116.83 K, Crystal 2) was 82.04 ± 0.53 J/K/mol. For the same compound, the “molar heat capacity at constant pressure” value (118.24 K, Crystal 2) was 82.7 ± 0.53 J/K/mol, the “molar heat capacity at constant pressure” value (119.21 K, Crystal 2) was 83.23 ± 0.5 J/K/mol and the “molar heat capacity at constant pressure” value (120 K, Crystal 2) was 83.73 ± 0.58 J/K/mol. For the same compound, the “molar heat capacity at constant pressure” value (120.39 K, Crystal 2) was 84.89 ± 0.58 J/K/mol, the “molar heat capacity at constant pressure” value (123.17 K, Crystal 2) was 91.87 ± 0.58 J/K/mol and the “molar heat capacity at constant pressure” value (124.56 K, Crystal 2) was 100.77 ± 0.67 J/K/mol. The “molar heat capacity at constant pressure” value (125.56 K, Crystal 2) was 106.26 ± 0.67 J/K/mol, the “molar heat capacity at constant pressure” value (126.99 K, Crystal 2) was 117.73 ± 0.75 J/K/mol and the “molar heat capacity at constant pressure” value (127 K, Crystal 1) was 86.55 ± 0.58 J/K/mol. The “molar heat capacity at constant pressure” value (127 K, Crystal 2) was 86.55 ± 0.58 J/K/mol, the “molar heat capacity at constant pressure” value (128.36 K, Crystal 1) was 113.16 ± 0.75 J/K/mol and the “molar heat capacity at constant pressure” value (128.73 K, Crystal 1) was 107.76 ± 0.75 J/K/mol. For the same compound, the “molar heat capacity at constant pressure” value (130 K, Crystal 1) was 87.8 ± 0.58 J/K/mol, the “molar heat capacity at constant pressure” value (130.58 K, Crystal 1) was 93.29 ± 0.58 J/K/mol and the “molar heat capacity at constant pressure” value (131.88 K, Crystal 1) was 89.3 ± 0.58 J/K/mol. The “molar heat capacity at constant pressure” value (132.69 K, Crystal 1) was 88.3 ± 0.58 J/K/mol, the “molar heat capacity at constant pressure” value (133.47 K, Crystal 1) was 88.38 ± 0.58 J/K/mol and the “molar heat capacity at constant pressure” value (134.22 K, Crystal 1) was 88.8 ± 0.58 J/K/mol. The “molar heat capacity at constant pressure” value (135.31 K, Crystal 1) was 89.3 ± 0.58 J/K/mol, the “molar heat capacity at constant pressure” value (136.46 K, Crystal 1) was 89.88 ± 0.58 J/K/mol and the “molar heat capacity at constant pressure” value (137.83 K, Crystal 1) was 90.46 ± 0.58 J/K/mol. The “molar heat capacity at constant pressure” value (138.61 K, Crystal 1) was 90.79 ± 0.58 J/K/mol, the “molar heat capacity at constant pressure” value (139.44 K, Crystal 1) was 91.13 ± 0.58 J/K/mol and the “molar heat capacity at constant pressure” value (140 K, Crystal 1) was 91.54 ± 0.58 J/K/mol. The “molar heat capacity at constant pressure” value (140.05 K, Crystal 1) was 91.46 ± 0.58 J/K/mol, the “molar heat capacity at constant pressure” value (141.84 K, Crystal 1) was 92.21 ± 0.58 J/K/mol and the “molar heat capacity at constant pressure” value (143.65 K, Crystal 1) was 92.87 ± 0.58 J/K/mol. For the same compound, the “molar heat capacity at constant pressure” value (146.58 K, Crystal 1) was 93.95 ± 0.58 J/K/mol, the “molar heat capacity at constant pressure” value (149.52 K, Crystal 1) was 95.03 ± 0.58 J/K/mol and the “molar heat capacity at constant pressure” value (150 K, Crystal 1) was 95.37 ± 0.58 J/K/mol. For the same compound, the “molar heat capacity at constant pressure” value (152.45 K, Crystal 1) was 96.2 ± 0.58 J/K/mol, the “molar heat capacity at constant pressure” value (155.39 K, Crystal 1) was 97.36 ± 0.58 J/K/mol and the “molar heat capacity at constant pressure” value (158.13 K, Crystal 1) was 98.36 ± 0.67 J/K/mol. The “molar heat capacity at constant pressure” value (160 K, Crystal 1) was 99.03 ± 0.67 J/K/mol, the “molar heat capacity at constant pressure” value (160.88 K, Crystal 1) was 99.36 ± 0.67 J/K/mol and the “molar heat capacity at constant pressure” value (163.62 K, Crystal 1) was 100.44 ± 0.67 J/K/mol. The “molar heat capacity at constant pressure” value (166.37 K, Crystal 1) was 101.44 ± 0.67 J/K/mol, the “molar heat capacity at constant pressure” value (168.91 K, Crystal 1) was 102.35 ± 0.67 J/K/mol and the “molar heat capacity at constant pressure” value (170 K, Crystal 1) was 102.68 ± 0.67 J/K/mol. The “molar heat capacity at constant pressure” value (171.45 K, Crystal 1) was 103.27 ± 0.67 J/K/mol, the “molar heat capacity at constant pressure” value (174.38 K, Crystal 1) was 104.26 ± 0.67 J/K/mol and the “molar heat capacity at constant pressure” value (177.32 K, Crystal 1) was 105.26 ± 0.67 J/K/mol. For the same compound, the “molar heat capacity at constant pressure” value (180 K, Crystal 1) was 106.18 ± 0.67 J/K/mol, the “molar heat capacity at constant pressure” value (180.25 K, Crystal 1) was 106.26 ± 0.67 J/K/mol and the “molar heat capacity at constant pressure” value (183.19 K, Crystal 1) was 107.26 ± 0.67 J/K/mol. For the same compound, the “molar heat capacity at constant pressure” value (186.12 K, Crystal 1) was 108.17 ± 0.67 J/K/mol, the “molar heat capacity at constant pressure” value (189.06 K, Crystal 1) was 109.17 ± 0.67 J/K/mol and the “molar heat capacity at constant pressure” value (190 K, Crystal 1) was 109.58 ± 0.67 J/K/mol. For the same compound, the “molar heat capacity at constant pressure” value (191.79 K, Crystal 1) was 110.08 ± 0.67 J/K/mol, the “molar heat capacity at constant pressure” value (194.53 K, Crystal 1) was 111 ± 0.67 J/K/mol and the “molar heat capacity at constant pressure” value (197.27 K, Crystal 1) was 111.91 ± 0.75 J/K/mol. For the same compound, the “molar heat capacity at constant pressure” value (199.58 K, Crystal 1) was 112.58 ± 0.75 J/K/mol, the “molar heat capacity at constant pressure” value (200 K, Crystal 1) was 112.74 ± 0.75 J/K/mol and the “molar heat capacity at constant pressure” value (201.38 K, Crystal 1) was 113.08 ± 0.75 J/K/mol. The “molar heat capacity at constant pressure” value (203.92 K, Crystal 1) was 113.83 ± 0.75 J/K/mol, the “molar heat capacity at constant pressure” value (206.38 K, Crystal 1) was 114.57 ± 0.75 J/K/mol and the “molar heat capacity at constant pressure” value (209.38 K, Crystal 1) was 115.65 ± 0.75 J/K/mol. The “molar heat capacity at constant pressure” value (210 K, Crystal 1) was 115.82 ± 0.75 J/K/mol, the “molar heat capacity at constant pressure” value (212.32 K, Crystal 1) was 116.57 ± 0.75 J/K/mol and the “molar heat capacity at constant pressure” value (215.39 K, Crystal 1) was 117.48 ± 0.75 J/K/mol. The “molar heat capacity at constant pressure” value (218.18 K, Crystal 1) was 118.31 ± 0.75 J/K/mol, the “molar heat capacity at constant pressure” value (219.88 K, Crystal 1) was 118.73 ± 0.75 J/K/mol and the “molar heat capacity at constant pressure” value (220 K, Crystal 1) was 118.81 ± 0.75 J/K/mol. The “molar heat capacity at constant pressure” value (221.58 K, Crystal 1) was 119.23 ± 0.75 J/K/mol, the “molar heat capacity at constant pressure” value (224.09 K, Crystal 1) was 119.98 ± 0.75 J/K/mol and the “molar heat capacity at constant pressure” value (226.59 K, Crystal 1) was 120.73 ± 0.75 J/K/mol. For the same compound, the “molar heat capacity at constant pressure” value (229.5 K, Crystal 1) was 121.56 ± 0.75 J/K/mol, the “molar heat capacity at constant pressure” value (230 K, Crystal 1) was 121.56 ± 0.75 J/K/mol and the “molar heat capacity at constant pressure” value (232.41 K, Crystal 1) was 122.39 ± 0.75 J/K/mol. The “molar heat capacity at constant pressure” value (235.32 K, Crystal 1) was 123.3 ± 0.75 J/K/mol, the “molar heat capacity at constant pressure” value (238.23 K, Crystal 1) was 124.22 ± 0.75 J/K/mol and the “molar heat capacity at constant pressure” value (240 K, Crystal 1) was 124.3 ± 0.75 J/K/mol.
